pIC50: −log10 of the molar value.
Experiments:
[1] = cells; conditions: Homo sapiens, HCT-116, 72 h
Description: Antiproliferative activity against human HCT116 cells after 72 hrs by MTT assay

[2] = Antitumor activity against human A549 cells xenografted in BALB/c nude mouse assessed as tumor volume at 50 mg/kg, ip administered 14 times in 22 days measured on day 8 post dose (reference value: 288.71 +/- 54.75 mm3); type: functional
[3] = system: Mus musculus; test: Toxicity in BALB/c nude mouse xenografted with human A549 cells assessed as body weight at 50 mg/kg, ip administered 14 times in 22 days measured on day 15 post dose (reference value: 25.41 +/- 1.04 g); type: organism-based; conditions: in vivo, 528 h
[4] = Antitumor activity against human A549 cells xenografted in BALB/c nude mouse assessed as tumor volume at 50 mg/kg, ip administered 14 times in 22 days measured on day 15 post dose (reference value: 502.27 +/- 69.26 mm3); type: functional
[5] = cells; conditions: Homo sapiens, A549, 72 h
Description: Antiproliferative activity against human A549 cells after 72 hrs by MTT assay

[6] = system: Mus musculus; test: Toxicity in BALB/c nude mouse xenografted with human A549 cells assessed as body weight at 50 mg/kg, ip administered 14 times in 22 days measured on day 11 post dose (reference value: 24.99 +/- 0.97 g); type: organism-based; conditions: in vivo, 528 h
[7] = Antitumor activity against human A549 cells xenografted in BALB/c nude mouse assessed as tumor growth inhibition at 50 mg/kg, ip administered 14 times in 22 days measured on day 11 post dose relative to control; type: functional; conditions: read-out: TGI
[8] = Antitumor activity against human A549 cells xenografted in BALB/c nude mouse assessed as tumor growth inhibition at 50 mg/kg, ip administered 14 times in 22 days measured on day 18 post dose relative to control; type: functional; conditions: read-out: TGI
[9] = Antitumor activity against human A549 cells xenografted in BALB/c nude mouse assessed as tumor volume at 50 mg/kg, ip administered 14 times in 22 days measured on day 1 post dose (reference value: 117.71 +/- 7.29 mm3); type: functional
[10] = Antitumor activity against human A549 cells xenografted in BALB/c nude mouse assessed as tumor growth inhibition at 50 mg/kg, ip administered 14 times in 22 days measured on day 15 post dose relative to control; type: functional; conditions: read-out: TGI
[11] = Antitumor activity against human A549 cells xenografted in BALB/c nude mouse assessed as tumor growth inhibition at 50 mg/kg, ip administered 14 times in 22 days measured on day 8 post dose relative to control; type: functional; conditions: read-out: TGI
[12] = Antitumor activity against human A549 cells xenografted in BALB/c nude mouse assessed as tumor volume at 50 mg/kg, ip administered 14 times in 22 days measured on day 22 post dose (reference value: 912.28 +/- 140.04 mm3); type: functional
[13] = Antiproliferative activity against human HL60 cells after 72 hrs by MTT assay; type: functional, cell-based; conditions: HL-60, 72 h
[14] = Antitumor activity against human A549 cells xenografted in BALB/c nude mouse assessed as tumor volume at 50 mg/kg, ip administered 14 times in 22 days measured on day 11 post dose (reference value: 373.93 +/- 59.98 mm3); type: functional
[15] = system: Mus musculus; test: Toxicity in BALB/c nude mouse xenografted with human A549 cells assessed as body weight at 50 mg/kg, ip administered 14 times in 22 days measured on day 1 post dose (reference value: 24.73 +/- 1.33 g); type: organism-based; conditions: in vivo, 528 h
[16] = Antitumor activity against human A549 cells xenografted in BALB/c nude mouse assessed as tumor volume at 50 mg/kg, ip administered 14 times in 22 days measured on day 4 post dose (reference value: 207.73 +/- 56.48 mm3); type: functional
[17] = system: Mus musculus; test: Toxicity in BALB/c nude mouse xenografted with human A549 cells assessed as body weight at 50 mg/kg, ip administered 14 times in 22 days measured on day 22 post dose (reference value: 25.59 +/- 1.16 g); type: organism-based; conditions: in vivo, 528 h
[18] = Antitumor activity against human A549 cells xenografted in BALB/c nude mouse assessed as tumor growth inhibition at 50 mg/kg, ip administered 14 times in 22 days measured on day 4 post dose relative to control; type: functional; conditions: read-out: TGI
[19] = system: Mus musculus; test: Toxicity in BALB/c nude mouse xenografted with human A549 cells assessed as body weight at 50 mg/kg, ip administered 14 times in 22 days measured on day 8 post dose (reference value: 25.19 +/- 1.38 g); type: organism-based; conditions: in vivo, 528 h
[20] = system: Mus musculus; test: Toxicity in BALB/c nude mouse xenografted with human A549 cells assessed as body weight at 50 mg/kg, ip administered 14 times in 22 days measured on day 18 post dose (reference value: 25.66 +/- 1.16 g); type: organism-based; conditions: in vivo, 528 h
[21] = Antitumor activity against human A549 cells xenografted in BALB/c nude mouse assessed as tumor volume at 50 mg/kg, ip administered 14 times in 22 days measured on day 18 post dose (reference value: 692.11 +/- 102.17 mm3); type: functional
[22] = system: Mus musculus; test: Toxicity in BALB/c nude mouse xenografted with human A549 cells assessed as body weight at 50 mg/kg, ip administered 14 times in 22 days measured on day 4 post dose (reference value: 24.84 +/- 1.22 g); type: organism-based; conditions: in vivo, 528 h
[23] = target: T1, Dihydrofolate reductase (Homo sapiens, UniProt P00374); test: Inhibition of recombinant human DHFR using DHF as substrate measured every 5 sec over 6 mins in presence of NADPH by UV-Visible spectrophotometric method relative to control
T1 sequence (P00374 whole entry): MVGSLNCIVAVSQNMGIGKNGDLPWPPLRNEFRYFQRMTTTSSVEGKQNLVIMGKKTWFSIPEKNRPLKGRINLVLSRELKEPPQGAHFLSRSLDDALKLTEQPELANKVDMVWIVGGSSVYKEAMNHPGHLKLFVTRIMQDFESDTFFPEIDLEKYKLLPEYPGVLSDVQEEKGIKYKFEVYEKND

[24] = Antitumor activity against human A549 cells xenografted in BALB/c nude mouse assessed as tumor growth inhibition at 50 mg/kg, ip administered 14 times in 22 days measured on day 22 post dose relative to control; type: functional; conditions: 528 h, read-out: TGI
[25] = Antiproliferative activity against human HepG2 cells after 72 hrs by MTT assay; type: functional, cell-based; conditions: HepG2, 72 h
[26] = system: Mus musculus; test: Toxicity in BALB/c nude mouse xenografted with human A549 cells assessed as body weight at 2 mg/kg, ip administered 14 times in 22 days measured on day 11 post dose (reference value: 24.99 +/- 0.97 g); type: organism-based; conditions: in vivo, 528 h
[27] = system: Mus musculus; test: Toxicity in BALB/c nude mouse xenografted with human A549 cells assessed as body weight at 2 mg/kg, ip administered 14 times in 22 days measured on day 18 post dose (reference value: 25.66 +/- 1.16 g); type: organism-based; conditions: in vivo, 528 h
[28] = Antitumor activity against human A549 cells xenografted in BALB/c nude mouse assessed as tumor growth inhibition at 2 mg/kg, ip administered 14 times in 22 days measured on day 4 post dose relative to control; type: functional; conditions: read-out: TGI
[29] = system: Mus musculus; test: Toxicity in BALB/c nude mouse xenografted with human A549 cells assessed as body weight at 2 mg/kg, ip administered 14 times in 22 days measured on day 1 post dose (reference value: 24.73 +/- 1.33 g); type: organism-based; conditions: in vivo, 528 h
[30] = Antitumor activity against human A549 cells xenografted in BALB/c nude mouse assessed as tumor growth inhibition at 2 mg/kg, ip administered 14 times in 22 days measured on day 8 post dose relative to control; type: functional; conditions: read-out: TGI
[31] = Antitumor activity against human A549 cells xenografted in BALB/c nude mouse assessed as tumor growth inhibition at 2 mg/kg, ip administered 14 times in 22 days measured on day 18 post dose relative to control; type: functional; conditions: read-out: TGI
[32] = Antitumor activity against human A549 cells xenografted in BALB/c nude mouse assessed as tumor growth inhibition at 2 mg/kg, ip administered 14 times in 22 days measured on day 22 post dose relative to control; type: functional; conditions: 528 h, read-out: TGI
[33] = Antitumor activity against human A549 cells xenografted in BALB/c nude mouse assessed as tumor volume at 2 mg/kg, ip administered 14 times in 22 days measured on day 15 post dose (reference value: 502.27 +/- 69.26 mm3); type: functional
[34] = Antitumor activity against human A549 cells xenografted in BALB/c nude mouse assessed as tumor growth inhibition at 2 mg/kg, ip administered 14 times in 22 days measured on day 11 post dose relative to control; type: functional; conditions: read-out: TGI
[35] = Antitumor activity against human A549 cells xenografted in BALB/c nude mouse assessed as tumor volume at 2 mg/kg, ip administered 14 times in 22 days measured on day 1 post dose (reference value: 117.71 +/- 7.29 mm3); type: functional
[36] = Antitumor activity against human A549 cells xenografted in BALB/c nude mouse assessed as tumor volume at 2 mg/kg, ip administered 14 times in 22 days measured on day 8 post dose (reference value: 288.71 +/- 54.75 mm3); type: functional
[37] = system: Mus musculus; test: Toxicity in BALB/c nude mouse xenografted with human A549 cells assessed as body weight at 2 mg/kg, ip administered 14 times in 22 days measured on day 4 post dose (reference value: 24.84 +/- 1.22 g); type: organism-based; conditions: in vivo, 528 h
[38] = Antitumor activity against human A549 cells xenografted in BALB/c nude mouse assessed as tumor growth inhibition at 2 mg/kg, ip administered 14 times in 22 days measured on day 15 post dose relative to control; type: functional; conditions: read-out: TGI
[39] = Antitumor activity against human A549 cells xenografted in BALB/c nude mouse assessed as tumor volume at 2 mg/kg, ip administered 14 times in 22 days measured on day 4 post dose (reference value: 207.73 +/- 56.48 mm3); type: functional
[40] = system: Mus musculus; test: Toxicity in BALB/c nude mouse xenografted with human A549 cells assessed as body weight at 2 mg/kg, ip administered 14 times in 22 days measured on day 22 post dose (reference value: 25.59 +/- 1.16 g); type: organism-based; conditions: in vivo, 528 h
[41] = Antiproliferative activity against human MDA-MB-231 cells after 72 hrs by MTT assay; type: functional, cell-based; conditions: MDA-MB-231, 72 h, read-out: IC50
[42] = Antitumor activity against human A549 cells xenografted in BALB/c nude mouse assessed as tumor volume at 2 mg/kg, ip administered 14 times in 22 days measured on day 22 post dose (reference value: 912.28 +/- 140.04 mm3); type: functional
[43] = system: Mus musculus; test: Toxicity in BALB/c nude mouse xenografted with human A549 cells assessed as body weight at 2 mg/kg, ip administered 14 times in 22 days measured on day 8 post dose (reference value: 25.19 +/- 1.38 g); type: organism-based; conditions: in vivo, 528 h
[44] = Antitumor activity against human A549 cells xenografted in BALB/c nude mouse assessed as tumor volume at 2 mg/kg, ip administered 14 times in 22 days measured on day 11 post dose (reference value: 373.93 +/- 59.98 mm3); type: functional
[45] = system: Mus musculus; test: Toxicity in BALB/c nude mouse xenografted with human A549 cells assessed as body weight at 2 mg/kg, ip administered 14 times in 22 days measured on day 15 post dose (reference value: 25.41 +/- 1.04 g); type: organism-based; conditions: in vivo, 528 h

SMILES: Br.NC1=NC2(CCOCC2)N(OCCCOc2ccc(Cl)cc2Cl)C(N)=N1
- pIC50 [1]: 6.06
- Activity [2]: 249.09 mm3
- Activity [3]: 23.63 g
- Activity [4]: 378.49 mm3
- pIC50 [5]: 7.15
- Activity [6]: 22.97 g
- inhibition in vivo at 50 mg/kg [7]: 16.3%
- inhibition in vivo at 50 mg/kg [8]: 32.8%
- Activity [9]: 117.63 mm3
- inhibition in vivo at 50 mg/kg [10]: 24.7%
- inhibition in vivo at 50 mg/kg [11]: 14.5%
- Activity [12]: 574.09 mm3
- pIC50 [13]: 6.48
- Activity [14]: 312.21 mm3
- Activity [15]: 23.65 g
- Activity [16]: 170.3 mm3
- Activity [17]: 23.47 g
- inhibition in vivo at 50 mg/kg [18]: 17.6%
- Activity [19]: 23.17 g
- Activity [20]: 23.65 g
- Activity [21]: 468.15 mm3
- Activity [22]: 23.53 g
- pIC50 [23]: 8.13
- inhibition in vivo at 50 mg/kg [24]: 36.8%

SMILES: CN(Cc1cnc2nc(N)nc(N)c2n1)c1ccc(C(=O)N[C@@H](CCC(=O)O)C(=O)O)cc1 [METHOTREXATE]
- pIC50 [25]: 6.39
- pIC50 [1]: 6.12
- Activity [26]: 23.98 g
- Activity [27]: 21.62 g
- pIC50 [5]: 6.60
- inhibition in vivo at 2 mg/kg [28]: 24.6%
- Activity [29]: 25.28 g
- inhibition in vivo at 2 mg/kg [30]: 32.7%
- inhibition in vivo at 2 mg/kg [31]: 50.6%
- inhibition in vivo at 2 mg/kg [32]: 50.8%
- Activity [33]: 271.71 mm3
- inhibition in vivo at 2 mg/kg [34]: 29.2%
- Activity [35]: 115.14 mm3
- pIC50 [13]: 5.96
- Activity [36]: 189.83 mm3
- Activity [37]: 25.47 g
- inhibition in vivo at 2 mg/kg [38]: 45%
- Activity [39]: 153.09 mm3
- Activity [40]: 21.4 g
- pIC50 [41]: 5.02
- Activity [42]: 440.75 mm3
- Activity [43]: 24.88 g
- Activity [44]: 223.6 mm3
- Activity [45]: 21.85 g

Source: ChEMBL document CHEMBL3877300, “Design, synthesis, docking studies and biological evaluation of novel dihydro-1,3,5-triazines as human DHFR inhibitors” (Eur J Med Chem, 2017)
